Data: patent US20140193827A1 (TEVA PHARMACEUTICAL INDUSTRIES, LTD., priority 2013, published 2014)

Test system: GA-primed murine splenocytes
Assay: Tolerance method for assessing process variability

glatiramer acetate [GA]
AVG expression CYHR1 (probe ILMN_1228937): 8.14
AVG expression MSN (probe ILMN_1229193): 9.736
AVG expression OTTMUSG00000016644 (probe ILMN_1229197): 7.618
AVG expression ECM1 (probe ILMN_1229746): 6.806
AVG expression LTA (probe ILMN_1229804): 8.009
AVG expression ST7 (probe ILMN_1229827): 7.737
AVG expression FCRLA (probe ILMN_1229840): 9.907
AVG expression 4933437K13RIK (probe ILMN_1230045): 9.824
AVG expression TPI1 (probe ILMN_1230137): 12.52
AVG expression BATF2 (probe ILMN_1230143): 6.446
AVG expression CLIC4 (probe ILMN_1230546): 11.15
AVG expression GM336 (probe ILMN_1230605): 7.6587
AVG expression LOC270152 (probe ILMN_1231204): 8.329
AVG expression TPI1 (probe ILMN_1231447): 7.938
AVG expression CCL5 (probe ILMN_1231814): 8.662
AVG expression THADA (probe ILMN_1232235): 8.652
AVG expression ANK (probe ILMN_1232621): 7.123
AVG expression MAD (probe ILMN_1232668): 7.987
AVG expression GBP1 (probe ILMN_1233293): 11.66
AVG expression LOC100045981 (probe ILMN_1233402): 9.335
AVG expression IL2RA (probe ILMN_1233474): 8.134
AVG expression C530027B15R1K (probe ILMN_1233501): 8.684
AVG expression CD27 (probe ILMN_1233589): 8.296
AVG expression 1110014O20RIK (probe ILMN_1233987): 9.906
AVG expression PPP3CC (probe ILMN_1233999): 8.724
AVG expression SCL0002007.1_97 (probe ILMN_1234020): 8.904
AVG expression TMED8 (probe ILMN_1234054): 8.518
AVG expression IRGM1 (probe ILMN_1234539): 11.44
AVG expression TSPAN2 (probe ILMN_1234698): 7.426
AVG expression IGHA_J00475$V00785_IG_HEAVY—CONSTANT_ALPHA_135 (probe ILMN_1234706): 7.221
AVG expression AI790298 (probe ILMN_1234746): 6.873
AVG expression 4630004K05RIK (probe ILMN_1234973): 6.972
AVG expression PROS1 (probe ILMN_1235499): 8.935
AVG expression A630072M18RIK (probe ILMN_1235926): 8.781
AVG expression FCRLA (probe ILMN_1236111): 11.88
AVG expression RAB11FIP4 (probe ILMN_1236245): 6.42
AVG expression E130302P19RIK (probe ILMN_1236354): 7.244
AVG expression 5830496L11RIK (probe ILMN_1236507): 9.309
AVG expression CAR1 (probe ILMN_1236588): 9.793
AVG expression SLC25A19 (probe ILMN_1237074): 11.68
AVG expression DDX25 (probe ILMN_1237338): 6.532
AVG expression IL7R (probe ILMN_1237567): 6.244
AVG expression PFKP (probe ILMN_1237695): 10.66
AVG expression AMPD1 (probe ILMN_1237871): 6.446
AVG expression AREG (probe ILMN_1238547): 6.514
AVG expression C130086J11RIK (probe ILMN_1238725): 7.188
AVG expression KDH (probe ILMN_1239055): 7.064
AVG expression KLRE1 (probe ILMN_1239346): 6.805
AVG expression LOC100047934 (probe ILMN_1239397): 10.17
AVG expression 6430510M02RIK (probe ILMN_1239411): 8.536
AVG expression CEACAM2 (probe ILMN_1239472): 6.786
AVG expression NG23 (probe ILMN_1239632): 8.463
AVG expression KIF1B (probe ILMN_1239729): 7.517
AVG expression 6030400N17RIK (probe ILMN_1239797): 6.341
AVG expression PRSS34 (probe ILMN_1239878): 6.278
AVG expression ANXA3 (probe ILMN_1241171): 8.239
AVG expression ADRB2 (probe ILMN_1241610): 8.974
AVG expression TCF7 (probe ILMN_1242308): 8.261
AVG expression CREM (probe ILMN_1242622): 8.248
AVG expression AKAP8L (probe ILMN_1242769): 9.971
AVG expression D630014A15RIK (probe ILMN_1242794): 8.379
AVG expression A130010J15RIK (probe ILMN_1243150): 8.875
AVG expression 2810410A03RIK (probe ILMN_1243249): 10.13
AVG expression A130026C10RIK (probe ILMN_1243621): 9.03
AVG expression B230369L08RIK (probe ILMN_1244343): 9.9
AVG expression RASGRP2 (probe ILMN_1244516): 6.8
AVG expression LOC100044948 (probe ILMN_1244853): 11.36
AVG expression GBP5 (probe ILMN_1244866): 9.012
AVG expression SYNGR2 (probe ILMN_1244874): 10.87
AVG expression CST7 (probe ILMN_1244891): 7.709
AVG expression F730045P10RIK (probe ILMN_1245300): 7.742
AVG expression HHEX (probe ILMN_1245731): 9.543
AVG expression CD84 (probe ILMN_1245754): 6.93
AVG expression SIAT7C (probe ILMN_1246543): 8.379
AVG expression C78339 (probe ILMN_1246895): 9.914
AVG expression BC004728 (probe ILMN_1247198): 10.36
AVG expression LOC100046770 (probe ILMN_1247199): 8.329
AVG expression IL3 (probe ILMN_1247309): 9.384
AVG expression CGEF2-PENDING (probe ILMN_1247893): 8.11
AVG expression EMP3 (probe ILMN_1248028): 10.05
AVG expression FASL (probe ILMN_1248413): 6.78
AVG expression C330023M02RIK (probe ILMN_1248651): 8.865
AVG expression CD55 (probe ILMN_1248714): 8.2139
AVG expression GATA3 (probe ILMN_1248843): 8.224
AVG expression TBX6 (probe ILMN_1249014): 6.934
AVG expression BCL2 (probe ILMN_1249021): 8.748
AVG expression MPO (probe ILMN_1249030): 8.41
AVG expression LOC100046608 (probe ILMN_1249366): 9.365
AVG expression TSSC6 (probe ILMN_1249740): 6.912
AVG expression IGF1R (probe ILMN_1249824): 6.78
AVG expression IGHG (probe ILMN_1249975): 8.895
AVG expression EIF2AK2 (probe ILMN_1250410): 10.06
AVG expression C730026J16 (probe ILMN_1251984): 9.459
AVG expression LYZ2 (probe ILMN_1252076): 8.645
AVG expression LOC100038894 (probe ILMN_1252295): 6.989
AVG expression WDR9 (probe ILMN_1252496): 7.625
AVG expression ACAT2 (probe ILMN_1253008): 9.341
AVG expression HS3ST1 (probe ILMN_1253182): 8.805
AVG expression DAPP1 (probe ILMN_1253354): 8.474
AVG expression WARS (probe ILMN_1254157): 10.36
AVG expression NISCH (probe ILMN_1254218): 10.29
AVG expression 4931429I11RIK (probe ILMN_1254314): 6.757
AVG expression LMNA (probe ILMN_1254405): 8.835
AVG expression AI607873 (probe ILMN_1254577): 7.533
AVG expression ACPL2 (probe ILMN_1254634): 7.573
AVG expression SYPL (probe ILMN_1254669): 10.85
AVG expression EG240327 (probe ILMN_1254685): 7.154
AVG expression LMNA (probe ILMN_1255510): 9.57
AVG expression IL6RA (probe ILMN_1255743): 7.478
AVG expression KLRD1 (probe ILMN_1255860): 8.506
AVG expression LOC100047261 (probe ILMN_1256219): 11.14
AVG expression PML (probe ILMN_1256356): 10.68
AVG expression MCOLN3 (probe ILMN_1256430): 6.748
AVG expression SLC6A12 (probe ILMN_1256644): 6.942
AVG expression LOC100043821 (probe ILMN_1257107): 10.78
AVG expression SLC37A1 (probe ILMN_1257444): 7.908
AVG expression LOC638301 (probe ILMN_1257771): 9.6
AVG expression A130095K04RIK (probe ILMN_1257803): 6.146
AVG expression D230004N01RIK (probe ILMN_1258197): 8.362
AVG expression DOK3 (probe ILMN_1258357): 11.45
AVG expression 5430434G16RIK (probe ILMN_1258364): 8.61
AVG expression LOC100044376 (probe ILMN_1258587): 9.335
AVG expression BC106179 (probe ILMN_1258864): 7.749
AVG expression TMEM66 (probe ILMN_1258965): 10.41
AVG expression NME7 (probe ILMN_1259075): 8.301
AVG expression SCIN (probe ILMN_1259174): 9.64
AVG expression SFT2D2 (probe ILMN_1260046): 10.2783
AVG expression USP18 (probe ILMN_2054914): 8.225
AVG expression ADCY7 (probe ILMN_2163572): 8.002
AVG expression TNFRSF18 (probe ILMN_2419490): 11.07
AVG expression TNFR5F18 (probe ILMN_2419494): 10.8
AVG expression BRWD1 (probe ILMN_2421220): 7.59
AVG expression UBD (probe ILMN_2426853): 8.138
AVG expression XBP1 (probe ILMN_2431237): 12.27
AVG expression LOC100048346 (probe ILMN_2433990): 9.203
AVG expression SCL0002069.1_48 (probe ILMN_2443164): 8.113
AVG expression MACF1 (probe ILMN_2444984): 7.707
AVG expression TNFRSF9 (probe ILMN_2445789): 8.963
AVG expression TNFRSF4 (probe ILMN_2446559): 10.65
AVG expression IBRDC3 (probe ILMN_2447712): 7.79
AVG expression MAP4K2 (probe ILMN_2449150): 9.206
AVG expression DUSP4 (probe ILMN_2450767): 8.696
AVG expression 6720418B01RIK (probe ILMN_2454823): 7.844
AVG expression A830080H07RIK (probe ILMN_2457437): 9.842
AVG expression MAML2 (probe ILMN_2457571): 8.504
AVG expression AHNAK (probe ILMN_2458765): 8.464
AVG expression ADAMTSL4 (probe ILMN_2459899): 8.039
AVG expression WNT10A (probe ILMN_2460094): 7.099
AVG expression BAMBI-PS1 (probe ILMN_2467190): 7.445
AVG expression 1110059G02RIK (probe ILMN_2473692): 6.85
AVG expression 5830411I20 (probe ILMN_2474052): 10.05
AVG expression CPM (probe ILMN_2476452): 6.679
AVG expression 1700052O22R1K (probe ILMN_2481117): 9.816
AVG expression 2210408F11RIK (probe ILMN_2483811): 10.42
AVG expression 2010005O13RIK (probe ILMN_2488997): 9.797
AVG expression PKIB (probe ILMN_2490076): 7.096
AVG expression TRIO (probe ILMN_2491741): 6.611
AVG expression WISP1 (probe ILMN_2492264): 6.711
AVG expression AA536717 (probe ILMN_2492284): 6.484
AVG expression 2310043N10RIK (probe ILMN_2493030): 9.383
AVG expression UGT1A10 (probe ILMN_2493826): 6.49
AVG expression 9430080K19RIK (probe ILMN_2500370): 10.17
AVG expression EG330070 (probe ILMN_2504447): 6.499
AVG expression A130090K04RIK (probe ILMN_2506039): 8.137
AVG expression 7530404M11RIK (probe ILMN_2507761): 7.426
AVG expression NME7 (probe ILMN_2510694): 7.434
AVG expression 1110046J11RIK (probe ILMN_2513451): 10.16
AVG expression 7530408C15RIK (probe ILMN_2517611): 7.035
AVG expression PLA2G12A (probe ILMN_2518483): 6.955
AVG expression 2010016118RIK (probe ILMN_2520264): 7.54
AVG expression 3010031K01RIK (probe ILMN_2522460): 9.234
AVG expression TRIO (probe ILMN_2522750): 8.588
AVG expression 4930597A21RIK (probe ILMN_2524763): 7.674
AVG expression CHI3L4 (probe ILMN_2524865): 7.454
AVG expression LOC240672 (probe ILMN_2531737): 8.095
